Columns and labels:
[1] = tested on: HeLa; assay: Antiproliferative activity against human HeLa cells assessed as reduction in cell viability incubated for 72 hrs by MTT assay; type: functional, cell-based
[2] = Inhibition of PI3K/Akt/mTOR signaling in human HeLa cells assessed as reduction in AKT 308 phosphorylation incubated for 24 hrs by Western blot analysis; type: cell-based
[3] = Oral bioavailability in Sprague-Dawley rat at 10 mg/kg measured upto 24 hrs by LC-MS/MS analysis; type: ADME, organism-based; settings: in vivo
[4] = molecular target: Tyrosine-protein kinase ABL1 (Homo sapiens) (UniProt P00519); assay: Inhibition of human ABL1 at 100 nM using EAIYAAPFAKKK as substrate by [gamma-33P]-ATP assay
[5] = molecular target: Activin receptor type-1-like (Homo sapiens) (UniProt P37023); assay: Inhibition of human ALK1 at 100 nM using casein as substrate by [gamma-33P]-ATP assay
[6] = molecular target: Proto-oncogene tyrosine-protein kinase Src (Homo sapiens) (UniProt P12931); assay: Inhibition of human c-SRC at 100 nM using poly[Glu:Tyr] (4:1) as substrate by [gamma-33P]-ATP assay
[7] = molecular target: Calcium/calmodulin-dependent protein kinase type II subunit beta (Homo sapiens) (UniProt Q13554); assay: Inhibition of human CAMK2B at 100 nM using KKALRRQETVDAL as substrate by [gamma-33P]-ATP assay
[8] = molecular target: CDK2/Cyclin A2 (Homo sapiens) (UniProt P24941+P20248); assay: Inhibition of human CDK2/cyclin-A at 100 nM using histone H1 as substrate by [gamma-33P]-ATP assay; type: protein-complex assay
[9] = molecular target: CDK2/Cyclin-E2 (Homo sapiens) (UniProt P24941+O96020); assay: Inhibition of human CDK2/cyclin-E2 at 100 nM using histone H1 as substrate by [gamma-33P]-ATP assay; type: protein-complex assay
[10] = molecular target: CDK9/Cyclin K (Homo sapiens) (UniProt P50750+O75909); assay: Inhibition of human CDK9/cyclin-K at 100 nM using KTFCGTPEYLAPEVRREPRILSEEEQEMFRDFDYIADWC as substrate by [gamma-33P]-ATP assay; type: protein-complex assay
[11] = molecular target: Serine/threonine-protein kinase Chk1 (Homo sapiens) (UniProt O14757); assay: Inhibition of human CHK1 at 100 nM using KKKVSRSGLYRSPSMPENLNRPR as substrate by [gamma-33P]-ATP assay
[12] = molecular target: Dual specificity protein kinase CLK1 (Homo sapiens) (UniProt P49759); assay: Inhibition of human CLK1 at 100 nM using MBP as substrate by [gamma-33P]-ATP assay
[13] = molecular target: Epithelial discoidin domain-containing receptor 1 (Homo sapiens) (UniProt Q08345); assay: Inhibition of human DDR1 at 100 nM using KKSRGDYMTMQIG as substrate by [gamma-33P]-ATP assay
[14] = molecular target: Mitogen-activated protein kinase 1 (Homo sapiens) (UniProt P28482); assay: Inhibition of human ERK2 at 100 nM using MBP as substrate by [gamma-33P]-ATP assay
[15] = molecular target: Tyrosine-protein kinase Fer (Homo sapiens) (UniProt P16591); assay: Inhibition of human FER at 100 nM using poly[Glu:Tyr] (4:1) as substrate by [gamma-33P]-ATP assay
[16] = molecular target: Receptor-type tyrosine-protein kinase FLT3 (Homo sapiens) (UniProt P36888); assay: Inhibition of human FLT3 at 100 nM using EAIYAAPFAKKK as substrate by [gamma-33P]-ATP assay
[17] = molecular target: Tyrosine-protein kinase HCK (Homo sapiens) (UniProt P08631); assay: Inhibition of human HCK at 100 nM using KVEKIGEGTYGVVYK as substrate by [gamma-33P]-ATP assay
[18] = molecular target: LIM domain kinase 1 (Homo sapiens) (UniProt P53667); assay: Inhibition of human LIMK1 at 100 nM using cofilin as substrate by [gamma-33P]-ATP assay
[19] = molecular target: Muscle, skeletal receptor tyrosine-protein kinase (Homo sapiens) (UniProt O15146); assay: Inhibition of human MUSK at 100 nM using MBP as substrate by [gamma-33P]-ATP assay
[20] = molecular target: Myosin light chain kinase family member 4 (Homo sapiens) (UniProt Q86YV6); assay: Inhibition of human MYLK4 at 100 nM using KKRPQRRYSNVF as substrate by [gamma-33P]-ATP assay
[21] = molecular target: Myosin-IIIa (Homo sapiens) (UniProt Q8NEV4); assay: Inhibition of human MYO3A at 100 nM using MBP as substrate by [gamma-33P]-ATP assay
[22] = molecular target: Myosin-IIIb (Homo sapiens) (UniProt Q8WXR4); assay: Inhibition of human MYO3B at 100 nM using MBP as substrate by [gamma-33P]-ATP assay
[23] = molecular target: Serine/threonine-protein kinase Nek3 (Homo sapiens) (UniProt P51956); assay: Inhibition of human NEK3 at 100 nM using MBP as substrate by [gamma-33P]-ATP assay
[24] = molecular target: Ribosomal protein S6 kinase beta-1 (Homo sapiens) (UniProt P23443); assay: Inhibition of human p70S6K at 100 nM using KKRNRTLTK as substrate by [gamma-33P]-ATP assay
[25] = molecular target: Serine/threonine-protein kinase PAK 4 (Homo sapiens) (UniProt O96013); assay: Inhibition of human PAK4 at 100 nM using RRRLSFAEPG as substrate by [gamma-33P]-ATP assay
[26] = molecular target: PAS domain-containing serine/threonine-protein kinase (Homo sapiens) (UniProt Q96RG2); assay: Inhibition of human PASK at 100 nM using KKLNRTLSFAEPG as substrate by [gamma-33P]-ATP assay
[27] = molecular target: Phosphorylase b kinase gamma catalytic chain, liver/testis isoform (Homo sapiens) (UniProt P15735); assay: Inhibition of human PHKgamma2 at 100 nM using MBP as substrate by [gamma-33P]-ATP assay
[28] = molecular target: Serine/threonine-protein kinase PLK1 (Homo sapiens) (UniProt P53350); assay: Inhibition of human PLK1 at 100 nM using casein as substrate by [gamma-33P]-ATP assay
[29] = molecular target: STE20-like serine/threonine-protein kinase (Homo sapiens) (UniProt Q9H2G2); assay: Inhibition of human SLK at 100 nM using Histone H3 as substrate by [gamma-33P]-ATP assay
[30] = molecular target: Testis-specific serine/threonine-protein kinase 6 (Homo sapiens) (UniProt Q9BXA6); assay: Inhibition of human SSTK at 100 nM using MBP as substrate by [gamma-33P]-ATP assay
[31] = molecular target: Tyrosine-protein kinase SYK (Homo sapiens) (UniProt P43405); assay: Inhibition of human SYK at 100 nM using poly[Glu:Tyr] (4:1) as substrate by [gamma-33P]-ATP assay
[32] = molecular target: Non-receptor tyrosine-protein kinase TNK1 (Homo sapiens) (UniProt Q13470); assay: Inhibition of human TNK1 at 100 nM using poly[Glu:Tyr] (4:1) as substrate by [gamma-33P]-ATP assay

Chain of Ribosomal protein S6 kinase beta-1 (Homo sapiens) (P23443 whole entry, looked up): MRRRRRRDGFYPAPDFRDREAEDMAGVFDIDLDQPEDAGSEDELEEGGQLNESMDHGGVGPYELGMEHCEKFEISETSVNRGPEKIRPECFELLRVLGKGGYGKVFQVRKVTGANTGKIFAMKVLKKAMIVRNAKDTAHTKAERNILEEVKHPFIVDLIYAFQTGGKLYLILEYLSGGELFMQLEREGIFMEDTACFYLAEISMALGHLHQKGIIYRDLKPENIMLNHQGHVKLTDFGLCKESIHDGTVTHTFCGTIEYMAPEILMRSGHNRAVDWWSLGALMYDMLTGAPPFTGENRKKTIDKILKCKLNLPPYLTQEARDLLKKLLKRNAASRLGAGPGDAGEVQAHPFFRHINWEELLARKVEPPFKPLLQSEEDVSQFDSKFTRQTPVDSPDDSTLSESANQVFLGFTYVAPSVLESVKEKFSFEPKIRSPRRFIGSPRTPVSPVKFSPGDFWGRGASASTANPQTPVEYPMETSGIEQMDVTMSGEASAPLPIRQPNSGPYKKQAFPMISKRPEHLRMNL
Chain of Calcium/calmodulin-dependent protein kinase type II subunit beta (Homo sapiens) (Q13554 whole entry): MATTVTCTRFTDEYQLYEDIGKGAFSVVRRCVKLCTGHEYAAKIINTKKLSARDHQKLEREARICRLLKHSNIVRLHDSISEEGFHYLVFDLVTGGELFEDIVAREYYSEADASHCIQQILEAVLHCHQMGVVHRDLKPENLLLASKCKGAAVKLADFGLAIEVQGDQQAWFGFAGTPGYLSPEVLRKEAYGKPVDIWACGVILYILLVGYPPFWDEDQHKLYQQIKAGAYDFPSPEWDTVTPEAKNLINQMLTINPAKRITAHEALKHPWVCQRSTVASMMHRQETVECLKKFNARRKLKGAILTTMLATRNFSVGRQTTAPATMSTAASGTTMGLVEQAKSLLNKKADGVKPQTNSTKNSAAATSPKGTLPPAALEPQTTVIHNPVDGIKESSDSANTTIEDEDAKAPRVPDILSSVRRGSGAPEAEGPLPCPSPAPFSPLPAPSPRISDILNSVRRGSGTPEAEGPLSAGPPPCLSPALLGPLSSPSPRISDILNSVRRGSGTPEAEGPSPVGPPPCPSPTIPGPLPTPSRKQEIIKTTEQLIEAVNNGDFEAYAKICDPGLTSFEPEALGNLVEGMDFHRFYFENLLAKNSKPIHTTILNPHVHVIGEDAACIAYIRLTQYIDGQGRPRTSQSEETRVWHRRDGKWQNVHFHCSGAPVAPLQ
Chain of Serine/threonine-protein kinase PAK 4 (Homo sapiens) (O96013 whole entry, looked up, the tested form may be a part): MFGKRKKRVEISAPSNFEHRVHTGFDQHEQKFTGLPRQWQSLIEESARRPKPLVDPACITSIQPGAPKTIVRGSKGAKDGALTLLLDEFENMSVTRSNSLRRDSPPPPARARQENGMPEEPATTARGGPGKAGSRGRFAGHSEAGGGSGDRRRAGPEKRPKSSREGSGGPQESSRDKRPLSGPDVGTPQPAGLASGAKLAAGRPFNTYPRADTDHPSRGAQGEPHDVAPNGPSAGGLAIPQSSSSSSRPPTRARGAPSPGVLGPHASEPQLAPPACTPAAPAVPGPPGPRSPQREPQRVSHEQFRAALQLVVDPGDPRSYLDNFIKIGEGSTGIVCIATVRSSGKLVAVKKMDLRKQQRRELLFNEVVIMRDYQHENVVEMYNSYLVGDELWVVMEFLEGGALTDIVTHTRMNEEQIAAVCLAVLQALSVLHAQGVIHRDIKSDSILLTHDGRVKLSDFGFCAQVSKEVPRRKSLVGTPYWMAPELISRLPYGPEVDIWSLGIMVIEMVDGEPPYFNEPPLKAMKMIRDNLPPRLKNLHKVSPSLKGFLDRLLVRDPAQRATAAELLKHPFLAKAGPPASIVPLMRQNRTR
Chain of Dual specificity protein kinase CLK1 (Homo sapiens) (P49759 whole entry, looked up, the tested form may be a part): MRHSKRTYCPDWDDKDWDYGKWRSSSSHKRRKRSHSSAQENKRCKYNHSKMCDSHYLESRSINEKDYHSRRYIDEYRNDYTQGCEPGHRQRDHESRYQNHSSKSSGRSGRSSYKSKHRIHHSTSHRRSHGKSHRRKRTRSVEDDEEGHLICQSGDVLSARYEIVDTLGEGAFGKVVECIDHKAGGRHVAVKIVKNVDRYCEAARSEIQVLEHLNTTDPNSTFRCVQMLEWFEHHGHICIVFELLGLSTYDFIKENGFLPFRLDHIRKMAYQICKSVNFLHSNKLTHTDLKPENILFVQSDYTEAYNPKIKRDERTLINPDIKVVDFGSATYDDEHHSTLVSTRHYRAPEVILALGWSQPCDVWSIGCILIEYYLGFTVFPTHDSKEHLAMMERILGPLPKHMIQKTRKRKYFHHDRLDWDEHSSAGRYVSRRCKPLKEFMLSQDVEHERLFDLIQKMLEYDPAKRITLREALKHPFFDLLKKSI
Chain of Proto-oncogene tyrosine-protein kinase Src (Homo sapiens) (P12931 2-536 limits assumed): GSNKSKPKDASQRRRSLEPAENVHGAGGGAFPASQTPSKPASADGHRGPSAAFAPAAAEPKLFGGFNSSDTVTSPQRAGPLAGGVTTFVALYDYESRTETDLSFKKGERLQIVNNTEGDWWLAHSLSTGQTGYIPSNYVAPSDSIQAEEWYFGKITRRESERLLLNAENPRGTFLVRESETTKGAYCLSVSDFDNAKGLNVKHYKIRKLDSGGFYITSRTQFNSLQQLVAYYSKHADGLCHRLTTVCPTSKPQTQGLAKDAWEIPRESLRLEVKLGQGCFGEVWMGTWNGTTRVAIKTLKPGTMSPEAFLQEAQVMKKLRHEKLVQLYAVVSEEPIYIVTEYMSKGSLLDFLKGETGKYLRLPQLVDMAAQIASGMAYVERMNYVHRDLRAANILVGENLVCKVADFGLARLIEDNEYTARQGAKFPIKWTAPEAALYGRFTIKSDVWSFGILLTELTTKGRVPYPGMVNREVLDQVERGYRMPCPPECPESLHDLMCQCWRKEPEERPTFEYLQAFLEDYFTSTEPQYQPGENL
Chain of Serine/threonine-protein kinase PLK1 (Homo sapiens) (P53350 whole entry): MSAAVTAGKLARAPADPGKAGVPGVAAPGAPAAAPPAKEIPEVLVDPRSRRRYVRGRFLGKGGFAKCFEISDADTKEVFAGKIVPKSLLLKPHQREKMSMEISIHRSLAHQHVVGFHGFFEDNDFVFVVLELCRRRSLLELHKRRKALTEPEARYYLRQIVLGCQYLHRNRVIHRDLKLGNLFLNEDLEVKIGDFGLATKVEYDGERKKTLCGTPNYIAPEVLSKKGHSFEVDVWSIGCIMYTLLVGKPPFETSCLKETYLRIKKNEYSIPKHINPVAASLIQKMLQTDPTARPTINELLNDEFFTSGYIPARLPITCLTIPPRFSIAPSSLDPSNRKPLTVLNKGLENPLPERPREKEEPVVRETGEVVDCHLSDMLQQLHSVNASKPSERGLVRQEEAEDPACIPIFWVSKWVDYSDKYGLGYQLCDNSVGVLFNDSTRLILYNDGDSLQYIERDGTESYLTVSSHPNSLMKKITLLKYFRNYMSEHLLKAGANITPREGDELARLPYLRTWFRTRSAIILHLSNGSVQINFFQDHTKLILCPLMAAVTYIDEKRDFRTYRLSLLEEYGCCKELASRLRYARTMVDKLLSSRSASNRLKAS
Chain of PAS domain-containing serine/threonine-protein kinase (Homo sapiens) (Q96RG2 whole entry, the tested form may be a part, canonical isoform): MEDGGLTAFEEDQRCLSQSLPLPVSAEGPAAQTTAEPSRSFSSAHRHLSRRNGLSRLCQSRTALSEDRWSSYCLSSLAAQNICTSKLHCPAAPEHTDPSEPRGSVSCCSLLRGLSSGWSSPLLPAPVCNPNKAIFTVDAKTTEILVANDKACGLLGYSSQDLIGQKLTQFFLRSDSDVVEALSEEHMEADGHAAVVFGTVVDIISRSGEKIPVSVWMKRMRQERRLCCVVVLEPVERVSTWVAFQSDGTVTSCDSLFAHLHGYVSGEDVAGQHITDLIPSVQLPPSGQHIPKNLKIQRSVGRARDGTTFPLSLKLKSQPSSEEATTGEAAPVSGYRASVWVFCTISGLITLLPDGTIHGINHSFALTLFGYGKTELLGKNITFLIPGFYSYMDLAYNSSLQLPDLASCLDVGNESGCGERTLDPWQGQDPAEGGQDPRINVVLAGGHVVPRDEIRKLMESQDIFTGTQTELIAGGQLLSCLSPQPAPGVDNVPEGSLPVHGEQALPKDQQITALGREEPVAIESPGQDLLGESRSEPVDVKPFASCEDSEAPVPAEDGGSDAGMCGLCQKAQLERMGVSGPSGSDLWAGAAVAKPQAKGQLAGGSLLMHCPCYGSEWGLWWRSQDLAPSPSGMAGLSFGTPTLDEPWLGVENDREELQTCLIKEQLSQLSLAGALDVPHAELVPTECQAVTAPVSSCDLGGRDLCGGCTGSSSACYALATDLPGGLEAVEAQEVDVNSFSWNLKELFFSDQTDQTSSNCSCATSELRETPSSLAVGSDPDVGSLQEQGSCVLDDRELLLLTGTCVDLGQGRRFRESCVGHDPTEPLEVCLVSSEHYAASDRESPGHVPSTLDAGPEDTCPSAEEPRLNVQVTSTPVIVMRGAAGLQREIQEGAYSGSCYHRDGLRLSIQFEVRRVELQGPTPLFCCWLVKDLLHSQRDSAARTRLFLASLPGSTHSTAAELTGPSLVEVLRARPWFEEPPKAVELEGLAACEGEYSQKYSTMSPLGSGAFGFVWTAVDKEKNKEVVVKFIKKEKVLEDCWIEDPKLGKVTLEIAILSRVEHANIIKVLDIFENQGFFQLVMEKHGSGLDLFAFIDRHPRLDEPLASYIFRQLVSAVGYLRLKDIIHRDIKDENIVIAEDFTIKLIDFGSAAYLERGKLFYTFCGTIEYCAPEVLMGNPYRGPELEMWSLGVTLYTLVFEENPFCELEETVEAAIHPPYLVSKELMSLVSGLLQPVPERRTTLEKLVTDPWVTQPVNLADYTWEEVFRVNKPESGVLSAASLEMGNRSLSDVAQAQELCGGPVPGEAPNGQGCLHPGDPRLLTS
Chain of Testis-specific serine/threonine-protein kinase 6 (Homo sapiens) (Q9BXA6 whole entry): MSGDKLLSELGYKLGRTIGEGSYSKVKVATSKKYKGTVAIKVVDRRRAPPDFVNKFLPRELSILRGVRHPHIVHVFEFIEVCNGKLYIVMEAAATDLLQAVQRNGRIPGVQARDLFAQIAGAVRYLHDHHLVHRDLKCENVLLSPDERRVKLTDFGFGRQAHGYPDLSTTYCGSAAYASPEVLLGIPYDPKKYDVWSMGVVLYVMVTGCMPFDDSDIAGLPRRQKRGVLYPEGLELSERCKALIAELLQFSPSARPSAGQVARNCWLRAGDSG

For `COc1ccc(N2C(=O)COc3ccc(-c4cnc(OC)c(NS(=O)(=O)c5ccc(F)cc5)c4)cc32)cc1`, the IC50 [1] was 1.22 µM, the inhibition [2] was “Dose-dependent effect” and the bioavailability [3] was 24.1%. The inhibition [4] was 1.19%, the inhibition [5] was -8.35% and the inhibition [6] was 6.76%. It also gave an inhibition [7] of 5.36%, an inhibition [8] of 2.43% and an inhibition [9] of -7.8%. The inhibition [10] was 9.26%, the inhibition [11] was 5.54% and the inhibition [12] was 7.77%. For the same compound, the inhibition [13] was 2.59%, the inhibition [14] was 17.4% and the inhibition [15] was 29.8%. It also gave an inhibition [16] of 16.6%, an inhibition [17] of 7.23% and an inhibition [18] of -3.87%. For the same compound, the inhibition [19] was -3.79%, the inhibition [20] was 7.06% and the inhibition [21] was 2.8%. For the same compound, the inhibition [22] was 8.36%, the inhibition [23] was 10.8% and the inhibition [24] was 0.03%. It also gave an inhibition [25] of 7.74%, an inhibition [26] of -2.91% and an inhibition [27] of 20%. The inhibition [28] was 8.68%, the inhibition [29] was -0.32% and the inhibition [30] was 2.2%. For the same compound, the inhibition [31] was 3.43% and the inhibition [32] was 10.7%.

From ChEMBL document CHEMBL4364276, “Discovery of 4-phenyl-2H-benzo[b][1,4]oxazin-3(4H)-one derivatives as potent and orally active PI3K/mTOR dual inhibitors” (Eur J Med Chem, 2019)
